In publication PMC8765781, “A platform of assays for the discovery of anti-Zika small-molecules with activity in a 3D-bioprinted outer-blood-retina model” (PLoS ONE, 2022):
Where two headings read alike, the source gives them in different places.

Legend:
[1] = tested on: ZIKV-RLuc (Cambodian strain FSS13025); experiment: microbe, parasite or virus in culture; type: cell-based, Zika virus
[2] = Zika virus, Vero, read-out: Log AC50 (M) (converted)

SMILES	CC-v2 (curve class classification v2 of the dose response curve) [1]	Efficacy (difference between neutral response and maximum compound response) [1]	Max Resp (difference between neutral response and compound response for highest compound concentration) [1]	AC50 ([1]; Zika virus, Vero) [M]	AC50 [1, 2] [M]	AC50 (Vero cells) [µM]	Log AC50 (M) (Vero cells)	AC50 [1] [M]	Log AC50 (M) [1]
O=C1NC(=O)/C(=C/c2ccc3nccc(-c4ccncc4)c3c2)S1 [NCGC00346509-02]	-1.1	-91.751	-97.47	1.47e-06	1.47e-06	1.47	-5.8327	–	–
Cc1ccc(NC(=O)c2ccc(CN3CC[C@H](N(C)C)C3)c(C(F)(F)F)c2)cc1Nc1ncc(-c2cncnc2)cn1 [NCGC00346514-01]	-2.1	-111.251	-100.269	1.65e-05	1.65e-05	16.5	-4.7827	–	–
C[C@@H]1CC[C@@]2(OC1)O[C@H]1C[C@H]3[C@@H]4CC=C5C[C@@H](O[C@@H]6O[C@H](CO)[C@@H](O[C@@H]7O[C@@H](C)[C@H](O)[C@@H](O)[C@H]7O)[C@H](O)[C@H]6O[C@@H]6O[C@@H](C)[C@H](O)[C@@H](O)[C@H]6O)CC[C@]5(C)[C@H]4CC[C@]3(C)[C@H]1[C@@H]2C [NCGC00346600-01]	-1.1	-96.499	-99.01	3.29e-06	3.29e-06	3.29	-5.4827	–	–
O=C(O)C1=CO[C@@H](O[C@@H]2O[C@H](CO)[C@@H](O)[C@H](O)[C@H]2O)[C@@H]2C(CO)=CC[C@H]12 [NCGC00346663-03]	-3	-105.712	-86.968	2.56e-05	2.56e-05	25.6	-4.5925	–	–
CC(C)c1cc(-c2n[nH]c(=O)n2-c2ccc3c(ccn3C)c2)c(O)cc1O [NCGC00346678-01]	-2.2	-44.79	-44.962	8.27e-06	8.27e-06	8.27	-5.0827	–	–
CC(C)c1cc(-c2n[nH]c(=O)n2-c2ccc3c(ccn3C)c2)c(O)cc1O [NCGC00346678-04]	-2.2	-65.758	-62.389	–	–	9.28	-5.0327	9.28e-06	-5.0327
CNC(=O)c1cccc(-c2ccc3c(N4CCOC[C@@H]4C)nc(N4CCOC[C@@H]4C)nc3n2)c1 [NCGC00346698-01]	-2.2	-76.837	-71.465	1.65e-05	1.65e-05	16.5	-4.7827	–	–
